According to US20120115724A1, “METHOD OF CONTROLLING UNDESIRED VEGETATION” (SYNGENTA CROP PROTECTION LLC, priority 2009, published 2012):

What was measured:
Type in all cases: in vivo
SIDSP Sida spinosa [1] = assay: Post-emergence crop and weed test (Example 15); conditions: 360 h, after 15 days, read-out: Percentage damage SIDSP
How it was run: (§1)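 Plants grown 14 days in a glasshouse (22/16 °C, 16 h light, 65% humidity) were sprayed post-emergence with active ingredient from a solvent/emulsifier stock diluted in water with 0.2% X-77. Damage was scored 15 days later on a 0–100 scale, where 100 is total damage.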

GLXMA Soybean [2] = assay: Post-emergence crop and weed test (Example 15); conditions: Glycine max, 360 h, after 15 days, read-out: Percentage damage GLXMA
How it was run: as §1

[3] = system: ABUTH Abutilon theophrasti; assay: Post-emergence crop and weed test (Example 15); conditions: 360 h, after 15 days, read-out: Percentage damage ABUTH
How it was run: as §1

[4] = system: EPHHL Euphorbia heterophylla; assay: Post-emergence crop and weed test (Example 15); conditions: 360 h, after 15 days, read-out: Percentage damage EPHHL
How it was run: as §1

[5] = system: POLCO Polygonum convolvulus; assay: Post-emergence crop and weed test (Example 15); conditions: Fallopia convolvulus, 360 h, after 15 days, read-out: Percentage damage POLCO
How it was run: as §1

GALAP Galium aparine [6] = assay: Post-emergence crop and weed test (Example 15); conditions: 360 h, after 15 days, read-out: Percentage damage GALAP
How it was run: as §1

[7] = system: XANST Xanthium strumarium; assay: Post-emergence crop and weed test (Example 15); conditions: 360 h, after 15 days, read-out: Percentage damage XANST
How it was run: as §1

KCHSC Kochia scoparia [8] = assay: Post-emergence crop and weed test (Example 15); conditions: Bassia scoparia, 360 h, after 15 days, read-out: Percentage damage KCHSC
How it was run: as §1

IPOHE Ipomoea hederacea [9] = assay: Post-emergence crop and weed test (Example 15); conditions: 360 h, after 15 days, read-out: Percentage damage IPOHE
How it was run: as §1

[10] = system: AMARE Amaranthus retroflexus; assay: Post-emergence crop and weed test (Example 15); conditions: 360 h, after 15 days, read-out: Percentage damage AMARE
How it was run: as §1

SINAR Sinapis arvensis [11] = assay: Post-emergence crop and weed test (Example 15); conditions: Mutarda arvensis, 360 h, after 15 days, read-out: Percentage damage SINAR
How it was run: as §1

SIDSP Sida spinosa [12] = assay: Pre-emergence crop and weed test (Example 16); conditions: after 20 days
Description: (§2) Seeds of crop and representative weed species were sown in standard soil in pots. After cultivation for 1 day under controlled conditions in a glasshouse (at 22/16° C., day/night; 16 hours light; 65% humidity), the plants were sprayed. The spray solution was prepared by dissolving the technical active ingredient in acetone containing 10.56 wt % Emulsogen EL, 42.22 wt % N-methylpyrrolidone and 2.22 wt % DPG-monoethyl ether to give a 5% stock solution. This was then diluted with water containing 0.2% (v/v) of the adjuvant X-77 to give the desired treatment concentration.
(§3) The test plants were then grown on under controlled conditions in a glasshouse (at 22/16° C., day/night; 16 hours light; 65% humidity) and watered twice daily. After 20 days the test was evaluated (100=total damage to plant; 0=no damage to plant).
(§4) Species as for Post-Emergence Test.

GLXMA Soybean [13] = assay: Pre-emergence crop and weed test (Example 16); conditions: after 20 days
Description: as §2, §3, §4

[14] = system: ABUTH Abutilon theophrasti; assay: Pre-emergence crop and weed test (Example 16); conditions: after 20 days
Description: as §2, §3, §4

[15] = system: EPHHL Euphorbia heterophylla; assay: Pre-emergence crop and weed test (Example 16); conditions: after 20 days
Description: as §2, §3, §4

[16] = system: POLCO Polygonum convolvulus; assay: Pre-emergence crop and weed test (Example 16); conditions: after 20 days
Description: as §2, §3, §4

GALAP Galium aparine [17] = assay: Pre-emergence crop and weed test (Example 16); conditions: after 20 days
Description: as §2, §3, §4

[18] = system: XANST Xanthium strumarium; assay: Pre-emergence crop and weed test (Example 16); conditions: after 20 days
Description: as §2, §3, §4

KCHSC Kochia scoparia [19] = assay: Pre-emergence crop and weed test (Example 16); conditions: after 20 days
Description: as §2, §3, §4

CHEAL Chenopodium album [20] = assay: Pre-emergence crop and weed test (Example 16); conditions: after 20 days
Description: as §2, §3, §4

IPOHE Ipomoea hederacea [21] = assay: Pre-emergence crop and weed test (Example 16); conditions: after 20 days
Description: as §2, §3, §4

[22] = system: AMARE Amaranthus retroflexus; assay: Pre-emergence crop and weed test (Example 16); conditions: after 20 days
Description: as §2, §3, §4

SINAR Sinapis arvensis [23] = assay: Pre-emergence crop and weed test (Example 16); conditions: after 20 days
Description: as §2, §3, §4

VERPE Veronica persica = assay: Post-emergence crop and weed test (Example 15); conditions: 360 h, after 15 days, read-out: Percentage damage VERPE
How it was run: as §1

CHEAL Chenopodium album [24] = assay: Post-emergence crop and weed test (Example 15); conditions: 360 h, after 15 days, read-out: Percentage damage CHEAL
How it was run: as §1

SMILES: C=Cc1c(N)nc(-c2ccc(Cl)c(OC)c2F)nc1C(=O)OC [Compound 2, 4-Amino-2-(4-chloro-2-fluoro-3-methoxy-phenyl)-5-ethenyl-6-methoxy-carbonyl-pyrimidine]
- pest or weed control at 8 g/ha (SIDSP Sida spinosa [1]): 80%
- plant injury at 8 g/ha (GLXMA Soybean [2]): 60%
- pest or weed control at 8 g/ha [3]: 80%
- pest or weed control at 8 g/ha [4]: 90%
- pest or weed control at 8 g/ha [5]: 70%
- pest or weed control at 8 g/ha (GALAP Galium aparine [6]; 8 g/ha): 80%
- pest or weed control at 8 g/ha [7]: 90%
- pest or weed control at 8 g/ha (KCHSC Kochia scoparia [8]): 30%
- pest or weed control at 8 g/ha (IPOHE Ipomoea hederacea [9]): 90%
- pest or weed control at 8 g/ha [10]: 80%
- pest or weed control at 8 g/ha (SINAR Sinapis arvensis [11]): 10%
- Percentage damage SIDSP (SIDSP Sida spinosa [12]; 15 g/ha): 80%
- Percentage damage GLXMA (GLXMA Soybean [13]; 15 g/ha): 20%
- Percentage damage ABUTH ([14]; 15 g/ha): 40%
- Percentage damage EPHHL ([15]; 15 g/ha): 100%
- Percentage damage POLCO ([16]; 15 g/ha): 20%
- Percentage damage GALAP (GALAP Galium aparine [17]; 15 g/ha): 100%
- Percentage damage XANST ([18]; 15 g/ha): 0%
- Percentage damage KCHSC (KCHSC Kochia scoparia [19]; 15 g/ha): 100%
- Percentage damage CHEAL (CHEAL Chenopodium album [20]; 15 g/ha): 70%
- Percentage damage IPOHE (IPOHE Ipomoea hederacea [21]; 15 g/ha): 30%
- Percentage damage AMARE ([22]; 15 g/ha): 40%
- Percentage damage SINAR (SINAR Sinapis arvensis [23]; 15 g/ha): 30%

SMILES: C=Cc1c(N)nc(-c2ccc(Cl)c(OC)c2F)nc1C(=O)O [Compound 11, 4-amino-2-(4-chloro-2-fluoro-3-methoxyphenyl) -5-ethenylpyrimidine-6-carboxylic acid]
- pest or weed control at 8 g/ha (SIDSP Sida spinosa [1]): 80%
- plant injury at 8 g/ha (GLXMA Soybean [2]): 0%
- pest or weed control at 8 g/ha [3]: 90%
- pest or weed control at 8 g/ha [4]: 90%
- pest or weed control at 8 g/ha [5]: 70%
- pest or weed control at 8 g/ha (VERPE Veronica persica): 80%
- pest or weed control at 8 g/ha [7]: 90%
- pest or weed control at 8 g/ha (KCHSC Kochia scoparia [8]): 10%
- pest or weed control at 8 g/ha (CHEAL Chenopodium album [24]): 80%
- pest or weed control at 8 g/ha [10]: 60%
- pest or weed control at 8 g/ha (SINAR Sinapis arvensis [11]): 0%
- Percentage damage SIDSP (SIDSP Sida spinosa [12]; 250 g/ha): 100%
- Percentage damage GLXMA (GLXMA Soybean [13]; 250 g/ha): 0%
- Percentage damage ABUTH ([14]; 250 g/ha): 100%
- Percentage damage EPHHL ([15]; 250 g/ha): 100%
- Percentage damage POLCO ([16]; 250 g/ha): 20%
- Percentage damage XANST ([18]; 250 g/ha): 70%
- Percentage damage KCHSC (KCHSC Kochia scoparia [19]; 250 g/ha): 100%
- Percentage damage CHEAL (CHEAL Chenopodium album [20]; 250 g/ha): 100%
- Percentage damage IPOHE (IPOHE Ipomoea hederacea [21]; 250 g/ha): 100%
- Percentage damage AMARE ([22]; 250 g/ha): 100%
- Percentage damage SINAR (SINAR Sinapis arvensis [23]; 250 g/ha): 70%

SMILES: COC(=O)c1nc(-c2ccc(Cl)c(OC)c2F)nc(N)c1Cl [Ref. Ex. B, 4-Amino-5-chloro-2-(4-chloro-2-fluoro-3-methoxyphenyl)-6-methoxycarbonyl-pyrimidine, reference compound]
- pest or weed control at 8 g/ha (SIDSP Sida spinosa [1]): 70%
- plant injury at 8 g/ha (GLXMA Soybean [2]): 90%
- pest or weed control at 8 g/ha [3]: 90%
- pest or weed control at 8 g/ha [4]: 100%
- pest or weed control at 8 g/ha [5]: 80%
- pest or weed control at 8 g/ha (VERPE Veronica persica): 80%
- pest or weed control at 8 g/ha [7]: 100%
- pest or weed control at 8 g/ha (CHEAL Chenopodium album [24]): 80%
- pest or weed control at 8 g/ha (IPOHE Ipomoea hederacea [9]): 80%
- pest or weed control at 8 g/ha [10]: 100%
- pest or weed control at 8 g/ha (SINAR Sinapis arvensis [11]): 80%
- Percentage damage SIDSP (SIDSP Sida spinosa [12]; 15 g/ha): 40%
- Percentage damage GLXMA (GLXMA Soybean [13]; 15 g/ha): 90%
- Percentage damage ABUTH ([14]; 15 g/ha): 30%
- Percentage damage EPHHL ([15]; 15 g/ha): 80%
- Percentage damage POLCO ([16]; 15 g/ha): 0%
- Percentage damage GALAP (GALAP Galium aparine [17]; 15 g/ha): 70%
- Percentage damage XANST ([18]; 15 g/ha): 0%
- Percentage damage KCHSC (KCHSC Kochia scoparia [19]; 15 g/ha): 0%
- Percentage damage CHEAL (CHEAL Chenopodium album [20]; 15 g/ha): 30%
- Percentage damage IPOHE (IPOHE Ipomoea hederacea [21]; 15 g/ha): 0%
- Percentage damage AMARE ([22]; 15 g/ha): 70%
- Percentage damage SINAR (SINAR Sinapis arvensis [23]; 15 g/ha): 80%

SMILES: COC(=O)c1nc(-c2ccc(Cl)c(OC)c2F)nc(NCc2ccco2)c1Cl [Ref. Ex. E, 5-Chloro-2-(4-chloro-2-fluoro-3-methoxyphenyl)-4-(furan-2-ylmethylamino)-6-methoxycarbonyl-pyrimidine, reference compound]
- pest or weed control at 125 g/ha (SIDSP Sida spinosa [1]; 125 g/ha): 90%
- plant injury at 125 g/ha (GLXMA Soybean [2]; 125 g/ha): 100%
- pest or weed control at 125 g/ha ([3]; 125 g/ha): 100%
- pest or weed control at 125 g/ha ([4]; 125 g/ha): 100%
- pest or weed control at 125 g/ha ([5]; 125 g/ha): 90%
- pest or weed control at 125 g/ha (VERPE Veronica persica; 125 g/ha): 10%
- pest or weed control at 125 g/ha (GALAP Galium aparine [6]; 125 g/ha): 90%
- pest or weed control at 125 g/ha ([7]; 125 g/ha): 100%
- pest or weed control at 125 g/ha (KCHSC Kochia scoparia [8]; 125 g/ha): 90%
- pest or weed control at 125 g/ha (CHEAL Chenopodium album [24]; 125 g/ha): 90%
- pest or weed control at 125 g/ha (IPOHE Ipomoea hederacea [9]; 125 g/ha): 90%
- pest or weed control at 125 g/ha ([10]; 125 g/ha): 100%
- pest or weed control at 125 g/ha (SINAR Sinapis arvensis [11]; 125 g/ha): 90%
- Percentage damage SIDSP (SIDSP Sida spinosa [12]; 125 g/ha): 70%
- Percentage damage GLXMA (GLXMA Soybean [13]; 125 g/ha): 10%
- Percentage damage ABUTH ([14]; 125 g/ha): 40%
- Percentage damage EPHHL ([15]; 125 g/ha): 100%
- Percentage damage POLCO ([16]; 125 g/ha): 0%
- Percentage damage GALAP (GALAP Galium aparine [17]; 125 g/ha): 90%
- Percentage damage XANST ([18]; 125 g/ha): 20%
- Percentage damage KCHSC (KCHSC Kochia scoparia [19]; 125 g/ha): 60%
- Percentage damage CHEAL (CHEAL Chenopodium album [20]; 125 g/ha): 30%
- Percentage damage IPOHE (IPOHE Ipomoea hederacea [21]; 125 g/ha): 30%
- Percentage damage AMARE ([22]; 125 g/ha): 70%
- Percentage damage SINAR (SINAR Sinapis arvensis [23]; 125 g/ha): 70%
